Values quoted from earlier work in paper PMC4411882, “Developmental Potential for Endomorphin Opioidmimetic Drugs” (International Journal of Medicinal Chemistry, 2012).
Where a SMILES comes first, the peptide text is derived from it. [ ]: non-standard residue; d: D form. The star is where a group is joined. Dmt = Cc1cc(O)cc(C)c1C[CH](N)C(=O)O; NHPh = c1ccc(N*)cc1

Assays:
μ-opioid receptor = μ-opioid receptor (Rattus norvegicus, UniProt P33535); set-up: gene Oprm1; rat brain P2 synaptosomal preparations; species or system rat brain P2 synaptosomal preparations; conditions: read-out: Kiμ
Sequence of μ-opioid receptor (P33535 whole entry): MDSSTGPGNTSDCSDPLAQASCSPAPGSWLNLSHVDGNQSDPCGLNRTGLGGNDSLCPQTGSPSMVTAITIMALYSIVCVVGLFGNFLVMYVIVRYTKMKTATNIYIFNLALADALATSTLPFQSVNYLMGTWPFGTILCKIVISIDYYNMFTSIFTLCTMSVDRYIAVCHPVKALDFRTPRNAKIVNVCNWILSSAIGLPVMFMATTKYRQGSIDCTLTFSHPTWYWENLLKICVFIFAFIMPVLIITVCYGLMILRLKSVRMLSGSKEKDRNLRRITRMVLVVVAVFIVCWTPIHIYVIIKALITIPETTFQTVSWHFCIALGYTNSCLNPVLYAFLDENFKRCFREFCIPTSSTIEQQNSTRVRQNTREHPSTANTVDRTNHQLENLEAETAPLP

μ-opioid receptor (GPI) = biological target: T1, μ-opioid receptor (GPI) (Cavia porcellus, UniProt P97266); set-up: species or system guinea pig ileum
T1 construct: gene OPRM1; guinea pig ileum (GPI) bioassay
T1 sequence (P97266 whole entry): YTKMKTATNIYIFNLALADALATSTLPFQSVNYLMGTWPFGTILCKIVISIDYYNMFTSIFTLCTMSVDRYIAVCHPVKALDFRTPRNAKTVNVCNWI
Text: (§1) Therefore, we substituted hydrophobic groups in lieu of the phenethyl group to develop the class of H-Dmt-Pro-Phe-NH-X ligands (Figure 1).

δ-opioid receptor (MVD) = biological target: T2, δ-opioid receptor (MVD) (Mus musculus, UniProt P32300); set-up: species or system mouse vas deferens
T2 construct: gene Oprd1; mouse vas deferens (MVD) bioassay
T2 sequence (P32300 whole entry): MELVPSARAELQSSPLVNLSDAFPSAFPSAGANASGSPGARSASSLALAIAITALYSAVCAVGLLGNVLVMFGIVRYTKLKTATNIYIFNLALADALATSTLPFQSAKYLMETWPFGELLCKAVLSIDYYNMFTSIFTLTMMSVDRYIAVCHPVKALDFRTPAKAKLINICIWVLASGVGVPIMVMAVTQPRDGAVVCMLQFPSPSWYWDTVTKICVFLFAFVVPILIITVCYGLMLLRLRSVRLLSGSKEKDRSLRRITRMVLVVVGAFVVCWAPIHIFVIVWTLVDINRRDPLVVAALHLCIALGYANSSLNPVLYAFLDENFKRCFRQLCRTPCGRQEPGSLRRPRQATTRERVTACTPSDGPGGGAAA
Text: as §1

δ-opioid receptor = δ-opioid receptor (Rattus norvegicus, UniProt P33533); set-up: gene Oprd1; rat brain P2 synaptosomal preparations; species or system rat brain P2 synaptosomal preparations; conditions: read-out: Kiδ
Sequence of δ-opioid receptor (P33533 whole entry): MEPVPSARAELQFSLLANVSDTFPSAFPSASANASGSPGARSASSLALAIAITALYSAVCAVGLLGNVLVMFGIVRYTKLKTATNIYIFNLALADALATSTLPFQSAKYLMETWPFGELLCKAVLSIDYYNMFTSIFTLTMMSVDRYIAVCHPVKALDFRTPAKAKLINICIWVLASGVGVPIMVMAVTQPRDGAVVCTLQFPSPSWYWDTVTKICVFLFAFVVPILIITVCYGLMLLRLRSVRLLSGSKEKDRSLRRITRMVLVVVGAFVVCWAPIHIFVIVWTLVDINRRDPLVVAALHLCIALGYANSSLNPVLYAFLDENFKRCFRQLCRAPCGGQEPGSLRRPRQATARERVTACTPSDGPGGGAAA

| Compound | Ki (μ-opioid receptor) | IC50 (μ-opioid receptor (GPI)) | IC50 (δ-opioid receptor (MVD)) | Ki (δ-opioid receptor) |
| --- | --- | --- | --- | --- |
| NC(=O)C(Cc1ccccc1)NC(=O)C(Cc1ccccc1)NC(=O)C1CCCN1C(=O)C(N)Cc1ccc(O)cc1 [compound 12, L-D-L-L (EM-2), [D-Pro^2]EM-2] | 512 nM |  |  |  |
| Cc1cc(O)cc(C)c1CC(N)C(=O)N1CCCC1C(=O)NC(Cc1ccccc1)C(N)=O (stereo not drawn) [compound 21, H-Dmt-Pro-Phe-NH2] (H-[Dmt]-Pro-Phe-NH2; configuration not given here) | 0.12 nM | 2.33 nM | 113 nM | 53.2 nM |
| CCc1cc(O)cc(C)c1C[C@H](N)C(=O)N1CCC[C@H]1C(=O)N[C@@H](Cc1ccccc1)C(=O)N[C@@H](Cc1ccccc1)C(N)=O [compound 35, H-Emt-Pro-Phe-Phe-NH2] | 0.063 nM | 0.623 nM | 1.08 nM | 55.7 nM |
| H-Dit-Pro-Phe-Phe-NH2 [compound 38] | 2.29 nM | 299 nM | > 10000 nM | 105 nM |
| Cc1cc(O)cc(C)c1C[C@H](N)C(=O)N1CCC[C@H]1C(=O)N[C@@H](Cc1ccccc1)C(=O)N[C@@H](Cc1ccccc1)C(N)=O [compound 20, H-Dmt-Pro-Phe-Phe-NH2, [Dmt^1]EM-2] | 0.15 nM | 0.07 nM | 1.87 nM | 28.2 nM |
| Cc1cc(O)cc(C)c1CC(N)C(=O)NCCCCc1[nH]c(=O)c(CCCCNC(=O)C(N)Cc2c(C)cc(O)cc2C)nc1C (centres unmarked) [compound 58, 3,6-bis[Dmt-NH(CH2)4]-5-methyl-2(1H)-pyrazinone] | 0.114 nM | 1.9 nM | 41.5 nM | 23.2 nM |
| Cc1cc(O)cc(C)c1C[C@H](N)C(=O)N1CCC[C@H]1C(=O)N[C@@H](Cc1ccccc1)C(=O)Nc1ccccn1 [compound 27, H-Dmt-Pro-Phe-NH-2-Pyr] | 0.13 nM | 15 nM | > 10000 nM | 157 nM |
| Cc1cc(O)cc(C)c1CC(N)C(=O)NCc1[nH]c(=O)c(CNC(=O)C(N)Cc2c(C)cc(O)cc2C)nc1C (centres unmarked) [compound 55, 3,6-bis[Dmt-NH-CH2]-5-methyl-2(1H)-pyrazinone] | 1.16 nM | 1700 nM | > 10000 nM | 15.7 nM |
| H-Dmt-Pro-Tmp-Phe-NH2 [compound 44] | 0.18 nM | 0.21 nM | > 10000 nM | 1.83 nM |
| Cc1cc(O)cc(C)c1CC(N)C(=O)N1Cc2ccccc2CC1C(=O)NCCCCc1[nH]c(=O)c(CCNC(=O)C2Cc3ccccc3CN2C(=O)C(N)Cc2c(C)cc(O)cc2C)nc1C (stereo not drawn) [compound 65, 3-[Dmt-Tic-NH(CH2)2]-6-[Dmt-Tic-NH(CH2)4]-5-methyl-2(1H)-pyrazinone] | 1.37 nM | > 10000 nM | > 10000 nM | 0.107 nM |
| Cc1cc(O)cc(C)c1C[C@H](N)C(=O)N1CCC[C@H]1C(=O)N[C@@H](Cc1c[nH]c2ccccc12)C(=O)N[C@@H](Cc1ccccc1)C(N)=O [compound 19, H-Dmt-Pro-Trp-Phe-NH2, [Dmt^1]EM-1] | 0.054 nM | 0.27 nM | > 10000 nM | 5.6 nM |
| Cc1cc(O)cc(C)c1C[C@H](N)C(=O)NCCCCCCNC(=O)[C@@H](N)Cc1c(C)cc(O)cc1C [compound 53, Dmt-NH-(CH2)6-NH-Dmt] | 0.053 nM | 3.08 nM | > 10000 nM | 46.1 nM |
| H-Tmt-Pro-Phe-Phe-NH2 [compound 39] | 0.111 nM | 2.31 nM | 46.4 nM | 594 nM |
| Cc1cc(O)cc(C)c1C[C@H](N)C(=O)N1CCC[C@H]1C(=O)N[C@@H](Cc1ccccc1)C(=O)Nc1cccc2cnccc12 [compound 33, H-Dmt-Pro-Phe-NH-5-Isq] | 0.19 nM | 0.94 nM | > 10000 nM | 98.3 nM |
| Cc1cc(O)cc(C)c1C[C@H](N)C(=O)N1CCC[C@H]1C(=O)N[C@@H](Cc1ccccc1)C(=O)Nc1ccccc1 [compound 24, H-Dmt-Pro-Phe-NH-Ph] (H-[Dmt]-Pro-Phe-NHPh) | 1.11 nM | 37.7 nM | > 10000 nM | 20.6 nM |
| C=CCNC(Cc1c(C)cc(O)cc1C)C(=O)NCCCc1[nH]c(=O)c(CCCNC(=O)C(Cc2c(C)cc(O)cc2C)NCC=C)nc1C (centres unmarked) [compound 50, 3,6-bis[N-allyl-Dmt-NH-propyl]-5-methyl-2(1H)-pyrazinone] | 6.94 nM | > 10000 nM | > 10000 nM | 77.8 nM |
| Cc1cc(O)cc(C(C)C)c1C[C@H](N)C(=O)N1CCC[C@H]1C(=O)N[C@@H](Cc1ccccc1)C(=O)N[C@@H](Cc1ccccc1)C(N)=O [compound 36, H-Imt-Pro-Phe-Phe-NH2] | 0.15 nM | 10.6 nM | 601 nM | 190 nM |
